“Also recorded” adds a separate entry of the source.
Tested on: DRG axons
Assay: Axon degeneration assay (axotomy of mouse DRG drop cultures)
Assay type: cell-based
Procedure: Mouse dorsal root ganglion neurons (DRGs) were dissected out of E12.5 CD1 mice (50 ganglia per embryo) and incubated with 0.5% Trypsin solution containing 0.02% EDTA (Gibco) at 37° C. for 15 min. The cells were then triturated by gentle pipetting and washed 3 times with DRG growth medium (Neurobasal medium (Gibco) containing 2% B27 (Invitrogen), 100 ng/ml 2.5S NGF (Harland Bioproducts), […] 5-fluoro-2′deoxyuridine (Sigma), penicillin, and streptomycin). Cells were suspended in the DRG growth medium. DRG drop cultures were created by spotting 5000 cells/well into the center of each well of a 96-well tissue culture plate coated with poly-D-Lysine (0.1 mg/ml; Sigma) and laminin ([…]; Invitrogen). Cells were allowed to adhere to the plates in a humidified tissue culture incubator (5% CO2) for 15 min and then DRG growth medium was gently added ([…]).
To study the axonal protective effects of combining NR supplementation with a SARM1 inhibitor, 6 day-old mouse DRG drop cultures were preincubated with 100 μM NR for 24 hours before axotomy. 2 hours prior to axotomy, DRG cultures were treated with SARM1 inhibitors, in the continued presence of 100 μM NR. Potent SARM1 inhibitors were selected from two classes: isoquinoline and isothiazole SARM1 inhibitors. Isoquinoline SARM1 inhibitors tested included I-26 and I-86, while isothiazole SARM1 inhibitors tested included II-6 and II-32. The SARM1 inhibitors were tested using concentrations ranging from 0.1 to 33 μM.
A manual axotomy was performed at time 0 by transecting the axons of the DRG neurons with a blade. After axotomy, DRG cultures remained exposed to the to SARM1 inhibitor alone, 100 μM NR alone, or the combination of SARM1 inhibitor and NR. At either 16 or 24 hours, DRG cultures were fixed in a buffered solution containing 1% PFA and sucrose and stored at 4° C. prior to imaging. Bright-field images of DRG axons and cell bodies were collected using the 20× water immersion lens of a Phenix automated confocal microscope (PerkinElmer) and quantitation of axonal damage was performed using in-house developed scripts (Acapella, PerkinElmer). The effect of NR alone in protecting distal axons from fragmentation was determined at a concentration of 100 μM. The effect of combining 100 μM NR with varying concentrations of a SARM1 inhibitor was compared to the individual protective effects of either 100 μM of NR alone or an equivalent concentration of a SARM1 inhibitor alone.

[1] = 1.1 μM SARM1 inhibitor alone, 24 h post-axotomy
[2] = 3.3 μM SARM1 inhibitor alone, 24 h post-axotomy
[3] = 3.3 μM SARM1 inhibitor alone, 16 h post-axotomy

For `Ic1cccc2cnccc12` [I-26], which “axonal protection (degeneration index of DRG axons)” value [1] is on record?
Its value is “no statistically significant benefit”.

And the “axonal protection (degeneration index of DRG axons)” value [2]?
The value was “more protection than with NR alone”.

What about the “axonal protection (degeneration index of DRG axons)” value (SARM1 inhibitor alone, concentration not stated in the sentence (1.1 or 3.3 μM tested), 16 h post-axotomy) of the same molecule?
Its value is “modest amount of axonal protection”.

`COc1cc(Br)c2ccncc2c1` [I-86] was tested. Which “axonal protection (degeneration index of DRG axons)” value (1.1 μM SARM1 inhibitor alone, 16 h post-axotomy) did it give?
The value was “NR alone provided greater protection than 1.1 μM compound I-86 alone”.

And the “axonal protection (degeneration index of DRG axons)” value [1]?
Its value is “less protection than NR alone”.

What about the “axonal protection (degeneration index of DRG axons)” value [3] of the same molecule?
The value was “greater protection than NR alone”.

Which results are given for `N#Cc1c(O)nsc1Nc1ccccc1C(F)(F)F` [II-6]?
axonal protection (degeneration index of DRG axons) [3]: stronger protection that NR alone; also recorded: stronger protection than NR alone; axonal protection (degeneration index of DRG axons) [2]: stronger protection than NR alone

How did the “axonal protection (degeneration index of DRG axons)” value (0.11 μM SARM1 inhibitor alone, 16 h post-axotomy) turn out when `COCCn1sc(Nc2ccccc2C(F)(F)F)c(C#N)c1=O` [II-32] was run?
The value was “NR alone provided greater protection than 0.11 μM and 0.33 μM of compound II-32 alone”.

And the “axonal protection (degeneration index of DRG axons)” value (0.11 μM SARM1 inhibitor alone, 24 h post-axotomy)?
Its value is “NR alone provided greater protection than 0.11 μM and 0.33 μM compound II-32 alone”.

What about the “axonal protection (degeneration index of DRG axons)” value (0.33 μM SARM1 inhibitor alone, 16 h post-axotomy) of the same molecule?
Its value is “NR alone provided greater protection than 0.11 μM and 0.33 μM of compound II-32 alone”.

What about the “axonal protection (degeneration index of DRG axons)” value (0.33 μM SARM1 inhibitor alone, 24 h post-axotomy) of the same molecule?
Its value is “NR alone provided greater protection than 0.11 μM and 0.33 μM compound II-32 alone”.

And the “axonal protection (degeneration index of DRG axons)” value (1 μM SARM1 inhibitor alone, 16 h post-axotomy)?
Its value is “greater protection than NR alone”.

And the “axonal protection (degeneration index of DRG axons)” value (1 μM SARM1 inhibitor alone, 24 h post-axotomy)?
Its value is “greater protection than NR alone”.

How did the “axonal protection (degeneration index of DRG axons)” value (100 μM NR alone, 16 h post-axotomy) turn out when `NC(=O)c1ccc[n+]([C@@H]2O[C@H](CO)[C@@H](O)[C@H]2O)c1` [NR, 1-(β-D-ribofuranosyl)nicotinamide, reference compound] was run?
The value was “modest amount of axonal protection”.

What about the “axonal protection (degeneration index of DRG axons)” value (100 μM NR alone, 24 h post-axotomy) of the same molecule?
The value was “modest level of protection”.
